In US20230132366A9, “METHODS FOR TREATING DYSREGULATED LIPID METABOLISM” (DENALI THERAPEUTICS INC., priority 2018, published 2023):

Test system: Trem2 KO BMDMs
Experiment: In vitro lipid storage assay, Nile Red staining, BMDM treated with myelin
Format: cell-based, mouse
Method: Mouse femur and tibia bones were dissected and briefly sterilized with 70% ethanol. The bones were washed twice with HBSS, then cracked in 10 mL HBSS by mortar and pestle. The cell suspension was filtered through a 70 μm cell strainer, spun at 300×g for 5 min, and supernatant was discarded. The cell pellet was resuspended in ACK Lysing Buffer (Thermo Fisher A1049201) for 4 min at room temperature. 10 mL RPMI-1640 (Thermo Fisher)+10% Hyclone FBS (GE Healthcare)+ Penicillin-Streptomycin (Thermo Fisher) was added to stop ACK lysis, then spun 300×g 5 min, and supernatant was discarded. Cells were resuspended in RPMI culture media with 50 ng/mL murine M-CSF (Life Technologies, PMC2044), counted and diluted to 1×10^6 cells/mL, then plated on non-tissue culture treated petri dishes. Three days after seeding, fresh murine M-CSF (50 ng/mL) was added. Five days after seeding, cell culture media was aspirated and cells were washed once with PBS. Cells were resuspended in RPMI/FBS/Pen-Strep and harvested with a cell scraper. […]
For LC-MS, cells were extracted according to the protocol below. […] Lipid and filipin spots were analyzed using a spot-finding algorithm on the Harmony software supplied with the instrument. […] Cells were imaged at 63× resolution and Nile Red was quantified as total spot area (FIG. 5B) using a spot-finding algorithm on the Harmony software. […]

Molecule	neutral lipid accumulation (Nile Red) (myelin debris 25 ug/mL 48 h, co-treatment 10 uM)	neutral lipid accumulation (Nile Red, total spot area) (myelin 25 ug/mL 24 h, then APOE3 10 ug/mL 24 h)
C=C(c1ccc(C(=O)O)cc1)c1cc2c(cc1C)C(C)(C)CCC2(C)C [bexarotene]	reduced	
APOE3: recombinant human APOE3 added into the culture media		improved
